Earlier results as cited in patent US20020137728A1, “Topical oral care compositions” (Oraceutical LLC, priority 2001, published 2002).

How the values were obtained:
[1] = system: serum alkaline phosphatase enzyme; conditions: single dose intraperitoneally, Wistar rats with artificially induced periodontal lesions
[2] = peroxide tooth whitening composition on tooth surface

Compound	serum alkaline phosphatase enzyme [1]	time to reach vital pulp tissue from initial contact on the tooth surface [2] [min]
O=C1O[C@H]([C@@H](O)CO)C(O)=C1O [ascorbic acid]	increase	–
OO [hydrogen peroxide]	–	≤ 15
